How the values were obtained:
Format in all cases: in vivo, mice
32Dp210 leukemia = assay: Dose-finding studies of chemotherapeutic regimens in advanced 32Dp210 leukemia; conditions: data not shown
Protocol: (§1) The major clinical application of an autologous AML vaccine strategy would be as post-remission immunotherapy to prolong relapse free survival in patients with MRD. To recapitulate this clinical setting, we developed a murine model of MRD for testing our vaccine. Initially, several chemotherapeutic regimens, previously shown to induce transient responses in 32Dp210 leukemia, were tested^48. […] A different strategy was therefore adopted for achieving post-remission MRD in mice with high leukemia burdens by lentivirally engineering a 32Dp210 cell line to express the herpes thymidine kinase (HSV-TK) suicide gene^36. Using this approach, treatment with ganciclovir (GCV) could be used to induce remission without the confounding immune and cytopenic effects of conventional chemotherapy^49. In this context, GCV treatment should not have a direct impact on leukemia-associated immune deviation, except as associated with reduction of tumor burden, since effects of GCV are primarily restricted to suppression of marrow proliferation, but not inhibition of immune function^50.

[1] = test system: 32Dp210-luc-HSV-TK+ leukemia; assay: Post-remission vaccination in the MRD model
Text: FIG. 18A-FIG. 18B depict the efficacy of the 32Dp210 vaccine as post-remission therapy to treat MRD. (FIG. 18A) In vivo bioluminescence analyses of 32Dp210-luc-HSV-TK leukemic mice undergoing GCV treatment with or without post-remission vaccination with 32Dp210-CD80-IL-15-IL-15Rα cells. Mice were inoculated with 1×10^5 32Dp210 cells on day 0 as indicated by the schema at the top of the figure. On day 10 mice underwent in vivo bioluminescence imaging and average photon counts per animal were plotted (upper set of bar graphs). N1-N5 represents normal, non-tumor bearing mice injected with luciferin on the same day, to establish background levels. Lanes 1-15 indicate mice inoculated with leukemia and subsequently treated with GCV according to the schema at the top of the figure. Gray bars in lanes 1-5 indicate IVIS analyses of mice that would receive 14 days GCV treatment and no further intervention; Black bars in lanes 6-15 depict IVIS analyses of mice treated with 14 days of GCV treatment that would be followed by serial vaccination with irradiated 32Dp210-IL-15/IL-15Rα/CD80 cells beginning at day 17. Lower panel of bar graphs depicts semi-quantitative IVIS studies after 5 days of GCV administration (day 15) in the same animals analyzed in the upper panel of bar graphs at day 10 after tumor inoculum. […]

[2] = test system: 32Dp210-luc-HSV-TK+ leukemia; assay: Minimal residual disease model: GCV remission induction
Protocol: FIG. 17A-FIG. 17C depict development of a minimal residual diseased (MRD) model in 32Dp210 leukemia. (FIG. 17A) In vivo bioluminescence analysis of effects of ganciclovir (GCV) treatment of 32Dp210-luc-HSV-TK+ leukemia. Mice inoculated IV with 32Dp210-luc-HSV-TK+ leukemia on day 0 were treated for 14 days with GCV (50 mg/kg) beginning at day 14. Left panel: Day 14 after tumor inoculation, Right panel: Day 28 after tumor inoculation and day 14 of GCV treatment. […] Mean photon counts+S.E.M. per animal are plotted on the y-axis after imaging at day 14 (white bars) and day 28 after tumor inoculation (gray bars). Uninjected controls (n=5) represent normal, non-tumor bearing mice injected with luciferin to establish background levels of in vivo bioluminescence used to define “complete remission”. […] Leukemic mice with tumor progression despite GCV administration (Non-responders, n=3) are depicted in the last two lanes on the right. […] Comparison of the percentage of 32Dp210-GFP+HSVTK+ cells in peripheral blood, spleen and bone marrow of responding mice (MRD). The percentage of GFP+ cells detected by flow cytometric analysis of blood (filled circle), spleen (open triangle), and bone marrow (filled diamonds) from each mouse achieving IVIS defined remission with MRD, are indicated on the Y axis. The mean for each group is designated by a horizontal line for each group as well as the S.E.M. Mice with MRD defined by semi-quantitative in vivo bioluminescence analyses had <5% leukemic cells in all tissues examined consistent with the clinical/pathological definition of leukemic remission.
(§2) At day 10 after IV injection of 1×10^5 32Dp210-luc cells, all mice had detectable leukemia by IVIS, and began a 14 day treatment (50 mg/kg/day) with Ganciclovir (GCV) (APP Pharmaceuticals, LLC, Schaumberg, IL). A higher dose of 100 mg GCV/kg/day was administered to confirm that GCV had minimal or no effects on blood counts (Table 1).
To validate this model, mice were treated daily with GCV once 32Dp210 leukemia was evident by IVIS. […] (FIG. 17A). […] To assess responses after GCV treatment, the frequency of 32Dp210-GFP+/HSV-TK+ cells in spleen, blood, and bone marrow were quantified by flow cytometric analysis (FIG. 17C). […] Lower numbers of GFP+ leukemia cells were detected in spleen after 14 days of GCV.

Effect of GCV on CBC = conditions: after 2 weeks of treatment
Protocol: as §2, §1

| Compound | outcome of dose-finding studies in leukemic mice (32Dp210 leukemia) | relapse after remission ([1]; 14-day GCV with no further therapy) | response by in vivo bioluminescence ([1]; day 5 of GCV administration (day 15), 1×10^5 cells inoculated) | mice showing remission ([2]; GCV begun on day 14 after tumor inoculation, read two weeks later (day 28)) | blasts in bone marrow ([2]; GCV-treated mice in remission) | GFP+ cells in BM ([2]; GCV-treated mice in remission, n=7/7) | GFP+ leukemia cells in spleen ([2]; after 14 days of GCV) | leukemic cells in all tissues examined ([2]; mice with MRD, blood, spleen, bone marrow) | Lymphocytes (Effect of GCV on CBC; 100 mg GCV/kg/day) | Monocytes (Effect of GCV on CBC; 100 mg GCV/kg/day) | Neutrophils (Effect of GCV on CBC; 100 mg GCV/kg/day) | White Blood Cells (Effect of GCV on CBC; 100 mg GCV/kg/day) | decline in WBC, neutrophils, hemoglobin, or monocytes (Effect of GCV on CBC) | number of peripheral lymphocytes (Effect of GCV on CBC; remained within the normal range) |
| --- | --- | --- | --- | --- | --- | --- | --- | --- | --- | --- | --- | --- | --- | --- |
| Nc1ccn([C@@H]2O[C@H](CO)[C@@H](O)[C@@H]2O)c(=O)n1 [cytosine arabinoside] | either ineffective, or resulted in both toxicity and lethality | – | – | – | – | – | – | – | – | – | – | – | – | – |
| Nc1nc(O)c2ncn(COC(CO)CO)c2n1 [GCV, ganciclovir] | – | eventually relapsed | most of the leukemic mice had major responses | Seven of 10 | < 5% | < 0.5% | Lower numbers | < 5% | 2.036 ± 0.279 k/μL | 0.310 ± 0.0364 k/μL | 4.141 ± 0.580 k/μL | 6.638 ± 0.575 k/μL | no significant decline | only a small reduction |

Source: patent publication US12186342B2, “Autologous irradiated whole cell tumor vaccines lentivirally engineered to express CD80, IL-15 and IL-15 receptor alpha” (The Regents of the University of California, priority 2016, dated 2025)
